# Experimental data reported in patent publication US9387200B2, “Isothiazole-pyridine derivatives as modulators of HIF (hypoxia inducible factor) activity” (FibroGen, Inc., priority 2008, dated 2016).
# Target: T1, HIF-PH2 (Homo sapiens, UniProt Q9GZT9)
# T1 construct: made in house; host or cells: insect Hi5 cells
# Test: HIF-PH assay (14CO2 capture, peptide-dependent turnover)
# Format: biochemical
# Conditions: for inhibition at 200 µM: compound concentration 200 μM; for inhibition at 22.22 µM: compound concentration 22.22 μM
# From the text: Ketoglutaric acid α-[1-^14C]-sodium salt, alpha-ketoglutaric acid sodium salt, and HPLC purified peptide may be obtained from commercial sources, e.g., Perkin-Elmer (Wellesley Mass.), Sigma-Aldrich, and SynPep Corp. (Dublin Calif.), respectively. Peptides for use in the assay may be fragments of HIFα as described above or as disclosed in International Publication WO 2005/118836, incorporated by reference herein. For example, a HIF peptide for use in the HIF-PH assay is [methoxycoumarin]-DLDLEALAPYIPADDDFQL-amide. HIF-PH, e.g., HIF-PH2 (EGLN1), can be expressed in, e.g., insect Hi5 cells, and partially purified, e.g., through a SP ion exchange chromatography column. Enzyme activity is determined by capturing ^14CO2 using an assay described by Kivirikko and Myllyla (1982, Methods Enzymol. 82:245-304). Assay reactions contain 50 mM HEPES (pH 7.4), 100 μM α-ketoglutaric acid sodium salt, 0.30 μCi/mL ketoglutaric acid α-[1-^14C]-sodium salt, 40 μM FeSO4, 1 mM ascorbate, 1541.8 units/mL Catalase, with or without 50 μM peptide substrate and various concentrations of compound of the invention. Reactions are initiated by addition of HIF-PH enzyme.
# The peptide-dependent percent turnover is calculated by subtracting percent turnover in the absence of peptide from percent turnover in the presence of substrate peptide. Percent inhibition and IC50 are calculated using peptide-dependent percent turnover at given inhibitor concentrations. Calculation of IC50 values for each inhibitor is conducted using GraFit software (Erithacus Software Ltd., Surrey UK).
# Representative compounds of the invention were analyzed using the HIF-PH assay described above. Table I below presents enzyme inhibition data for exemplary compounds against HIF-PH2, a representative HIF prolyl hydroxylase enzyme. By inhibiting HIF prolyl hydroxylase enzymes, compounds of the invention stabilize HIFα, which then combines with HIFβ to form an active transcription factor that increases expression of various genes involved in numerous beneficial cellular processes.
# T1 sequence (Q9GZT9 whole entry, species assumed): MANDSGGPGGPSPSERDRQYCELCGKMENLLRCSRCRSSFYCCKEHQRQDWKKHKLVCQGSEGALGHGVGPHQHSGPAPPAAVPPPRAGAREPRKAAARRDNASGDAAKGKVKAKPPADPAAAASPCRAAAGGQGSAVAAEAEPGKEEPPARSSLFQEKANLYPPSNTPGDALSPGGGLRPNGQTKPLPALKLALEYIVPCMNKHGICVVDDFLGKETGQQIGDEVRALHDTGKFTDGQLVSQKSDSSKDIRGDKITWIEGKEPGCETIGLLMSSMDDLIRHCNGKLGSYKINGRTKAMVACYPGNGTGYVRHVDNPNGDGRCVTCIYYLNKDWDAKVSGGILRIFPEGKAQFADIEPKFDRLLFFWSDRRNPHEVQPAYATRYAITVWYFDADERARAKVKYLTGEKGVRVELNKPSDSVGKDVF
inhibition at 200 µM [%],inhibition at 22.22 µM [%],Structure (SMILES)
100,–,"O=C(O)CNC(=O)c1nc(C(F)(F)F)c2snc(-c3ccc(Cl)cc3)c2c1O [Example 26, {[3-(4-Chloro-phenyl)-4-hydroxy-7-trifluoromethyl-isothiazolo[5,4-c]pyridine-5-carbonyl]-amino}-acetic acid]"
74,–,"Cc1nsc2c(-c3ccccn3)nc(C(=O)NCC(=O)O)c(O)c12 [Example 38, [(4-Hydroxy-3-methyl-7-pyridin-2-yl-isothiazolo[5,4-c]pyridine-5-carbonyl)-amino]-acetic acid]"
100,–,"C[C@H](NC(=O)c1ncc2snc(-c3ccc(Cl)cc3)c2c1O)C(=O)O [Example 19, (S)-2-{[3-(4-Chloro-phenyl)-4-hydroxy-isothiazolo[5,4-c]pyridine-5-carbonyl]-amino}-propionic acid]"
88.9,–,"COc1cccc(-c2nc(C(=O)NCC(=O)O)c(O)c3c(-c4ccc(Cl)cc4)nsc23)c1 [Example 20, {[3-(4-Chloro-phenyl)-4-hydroxy-7-(3-methoxy-phenyl)-isothiazolo[5,4-c]pyridine-5-carbonyl]-amino}-acetic acid]"
98.9,–,"O=C(O)CNC(=O)c1ncc2snc(-c3ccc(F)cc3)c2c1O [Example 12, {[3-(4-Fluoro-phenyl)-4-hydroxy-isothiazolo[5,4-c]pyridine-5-carbonyl]-amino}-acetic acid]"
100,–,"O=C(O)CNC(=O)c1ncc2snc(-c3ccccc3F)c2c1O [Example 33, {[3-(2-Fluoro-phenyl)-4-hydroxy-isothiazolo[5,4-c]pyridine-5-carbonyl]-amino}-acetic acid]"
98.3,–,"C#Cc1nc(C(=O)NCC(=O)O)c(O)c2c(-c3ccc(F)cc3)nsc12 [Example 6, {[7-Ethynyl-3-(4-fluoro-phenyl)-4-hydroxy-isothiazolo[5,4-c]pyridine-5-carbonyl]-amino}-acetic acid]"
99.1,–,"O=C(O)CNC(=O)c1nc(-c2ccccn2)c2snc(-c3ccccc3)c2c1O [Example 4, [(4-Hydroxy-3-phenyl-7-pyridin-2-yl-isothiazolo[5,4-c]pyridine-5-carbonyl)-amino]-acetic acid]"
94.5,–,"COc1ccc(-c2nc(C(=O)NCC(=O)O)c(O)c3c(-c4ccc(Cl)cc4)nsc23)cc1 [Example 13, {[3-(4-Chloro-phenyl)-4-hydroxy-7-(4-methoxy-phenyl)-isothiazolo[5,4-c]pyridine-5-carbonyl]-amino}-acetic acid]"
100,–,"O=C(O)CNC(=O)c1nc(-c2ccc(Oc3ccccc3)cc2)c2snc(-c3ccccc3F)c2c1O [Example 35, {[3-(2-Fluoro-phenyl)-4-hydroxy-7-(4-phenoxy-phenyl)-isothiazolo[5,4-c]pyridine-5-carbonyl]-amino}-acetic acid]"
–,100,"O=C(O)CNC(=O)c1nc(-c2ccccc2)c2c(Cn3ccc4ccccc43)nsc2c1O [Example 42, [(7-Hydroxy-3-indol-1-ylmethyl-4-phenyl-isothiazolo[4,5-c]pyridine-6-carbonyl)-amino]-acetic acid]"
100,–,"Cc1nsc2c(-c3ccccc3)nc(C(=O)NCC(=O)O)c(O)c12 [Example 30, [(4-Hydroxy-3-methyl-7-phenyl-isothiazolo[5,4-c]pyridine-5-carbonyl)-amino]-acetic acid]"
–,100,"O=C(O)CNC(=O)c1nc(-c2cn(Cc3ccccc3)nn2)c2snc(-c3ccc(Cl)cc3)c2c1O [Example 23, {[7-(1-Benzyl-1H-[1,2,3]triazol-4-yl)-3-(4-chloro-phenyl)-4-hydroxy-isothiazolo[5,4-c]pyridine-5-carbonyl]-amino}-acetic acid]"
98.2,–,"O=C(O)CNC(=O)c1nc(-c2ccccc2)c2snc(-c3ccc(F)cc3)c2c1O [Example 10, {[3-(4-Fluoro-phenyl)-4-hydroxy-7-phenyl-isothiazolo[5,4-c]pyridine-5-carbonyl]-amino}-acetic acid]"
100,–,"O=C(O)CNC(=O)c1nc(Br)c2snc(-c3ccc(F)cc3)c2c1O [Example 7, {[7-Bromo-3-(4-fluoro-phenyl)-4-hydroxy-isothiazolo[5,4-c]pyridine-5-carbonyl]-amino}-acetic acid]"
100,–,"Cc1nc(C(=O)NCC(=O)O)c(O)c2c(C)nsc12 [Example 28, [(4-Hydroxy-3,7-dimethyl-isothiazolo[5,4-c]pyridine-5-carbonyl)-amino]-acetic acid]"
100,–,"C#Cc1nc(C(=O)NCC(=O)O)c(O)c2c(C)nsc12 [Example 39, [(7-Ethynyl-4-hydroxy-3-methyl-isothiazolo[5,4-c]pyridine-5-carbonyl)-amino]-acetic acid]"
98,–,"O=C(O)CNC(=O)c1nc(Br)c2c(-c3ccccc3)nsc2c1O [Example 27, [(4-Bromo-7-hydroxy-3-phenyl-isothiazolo[4,5-c]pyridine-6-carbonyl)-amino]-acetic acid]"
100,–,"Cc1nsc2c(O)c(C(=O)NCC(=O)O)nc(C)c12 [Example 29, [(7-Hydroxy-3,4-dimethyl-isothiazolo[4,5-c]pyridine-6-carbonyl)-amino]-acetic acid]"
100,–,"Cc1nc(C(=O)NCC(=O)O)c(O)c2c(-c3ccccc3F)nsc12 [Example 36, {[3-(2-Fluoro-phenyl)-4-hydroxy-7-methyl-isothiazolo[5,4-c]pyridine-5-carbonyl]-amino}-acetic acid]"
